Test results from patent publication US9365576B2, “Pyrrolopyrrolidinone compounds” (Novartis AG, priority 2012, dated 2016).

Tests used:
Assay type in all cases: binding
[1] = molecular target: human MDM4 protein (amino acids 2-185) (Homo sapiens (Human), UniProt O15151); assay: TR-FRET assay, p53-MDM4 Assay 1; conditions: 2.5 nM MDM4-biotinylated, 10 nM Cy5-p53 peptide
Protocol: (§1) The inhibition of p53-MDM2 and p53-MDM4 interactions is measured by time resolved fluorescence energy transfer (TR-FRET). Fluorescence energy transfer (or Foerster resonance energy transfer) describes an energy transfer between donor and acceptor fluorescent molecules. For this assay, human MDM2 protein (amino acids 2-188) and human MDM4 protein (amino acids 2-185), tagged with a C-terminal biotin moiety, are used in combination with a Europium labeled streptavidin (Perkin Elmer, Inc., Waltham, Mass., USA) serving as the donor fluorophore. The p53 derived, Cy5 labeled peptide Cy5-TFSDLWKLL (p53 aa18-26) is the energy acceptor. Upon excitation of the donor molecule at 340 nm, binding interaction between MDM2 or MDM4 and the p53 peptide induces energy transfer and enhanced response at the acceptor emission wavelength at 665 nm. Disruption of the formation of the p53-MDM2 or p53-MDM4 complex due to an inhibitor molecule binding to the p53 binding site of MDM2 or MDM4 results in increased donor emission at 620 nm. The ratiometric FRET assay readout is calculated from the raw data of the two distinct fluorescence signals measured in time resolved mode (fluorescence 665 nm/fluorescence 620 nm×1000).
(§2) After addition of 1.25 nM MDM2-biotinylated or 2.5 nM MDM4-biotinylated (internal preparations), and 0.625 nM Europium labeled streptavidin (Perkin Elmer), the solution is pre-incubated for 15 minutes at room temperature, then 10 nM Cy5-p53 peptide (internal preparation) is added before an incubation at room temperature for 15 minutes prior to reading the plate. For measurement of samples, a Victor II microplate reader (Perkin Elmer) is used with the following settings: Excitation 340 nm, Emission Donor 620 nm and Emission Acceptor 665 nm. IC50 values are calculated by curve fitting using XLfit. If not specified, reagents are purchased from Sigma-Aldrich Chemie GmBH, Buchs, Switzerland.
(§3) This assay was used to evaluate compounds displaying inhibition of p53-MDM2 interaction and p53-MDM4 interaction at IC50s of 0.005 to 50 μM (p53-MDM2 Assay 1 and p53-MDM4 Assay 1, respectively). For selected compounds displaying IC50s between […] on MDM2, a slightly modified assay is used with the following adaptations: 0.1 nM MDM2, 0.1 nM Europium labeled streptavidin and Tecan genios Pro is used as a microplate reader for the fluorescence measurements (p53-MDM2 Assay 2).

[2] = molecular target: T1, human MDM2 protein (amino acids 2-188) (Homo sapiens (Human), UniProt Q00987); assay: TR-FRET assay, p53-MDM2 Assay 1; conditions: 1.25 nM MDM2-biotinylated, 10 nM Cy5-p53 peptide
T1 sequence (Q00987 2-188): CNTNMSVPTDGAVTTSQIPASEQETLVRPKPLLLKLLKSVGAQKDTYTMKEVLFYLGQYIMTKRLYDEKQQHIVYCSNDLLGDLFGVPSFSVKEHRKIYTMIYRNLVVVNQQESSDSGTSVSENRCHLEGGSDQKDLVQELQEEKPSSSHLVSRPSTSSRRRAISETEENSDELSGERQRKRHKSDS
Protocol: as §1, §2, §3

[3] = molecular target: T1, human MDM2 protein (amino acids 2-188); assay: TR-FRET assay, p53-MDM2 Assay 2 (modified); conditions: TR-FRET; 0.1 nM MDM2, 0.1 nM Europium labeled streptavidin, Tecan genios Pro reader; read-out: IC50 p53-MDM2 Assay 2
Procedure, shortened: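 IC50 values were curve-fitted from the time-resolved 665/620 nm emission ratio after 340 nm excitation. The assay combined 0.625 nM europium-streptavidin donor with 1.25 nM C-terminally biotinylated MDM2 2–188 (15 min, RT), followed by 15 min with 10 nM Cy5-labeled p53 18–26 acceptor peptide.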

Chain of human MDM4 protein (amino acids 2-185) (O15151 2-185): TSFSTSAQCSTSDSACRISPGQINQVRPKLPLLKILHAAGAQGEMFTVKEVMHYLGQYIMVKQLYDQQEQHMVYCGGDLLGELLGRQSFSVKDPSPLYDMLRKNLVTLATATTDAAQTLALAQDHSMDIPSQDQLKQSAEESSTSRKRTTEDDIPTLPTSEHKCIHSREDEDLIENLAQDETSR

| SMILES | IC50 [1] | IC50 [2] | IC50 [3] |
| --- | --- | --- | --- |
| COc1ccc(C(=O)NOCCO)cc1-c1cc2c(n1C(C)C)C(c1ccc(Cl)cc1)N(c1cc(Cl)ccc1C)C2=O (stereo not drawn) [Example 37, 3-[5-(5-Chloro-2-methyl-phenyl)-6-(4-chloro-phenyl)-1-isopropyl-4-oxo-1,4,5,6-tetrahydro-pyrrolo[3,4-b]pyrrol-2-yl]-N-(2-hydroxy-ethoxy)-4-methoxy-benzamide] | 327 nM | 1.1 nM | 0.125 nM |
| CNC(=O)c1ccc(OC)c(-c2cc3c(n2C(C)C)[C@H](c2ccc(Cl)cc2C)N(c2cc(Cl)ccc2C)C3=O)c1 [Example 32, 3-[(S)-5-(5-Chloro-2-methyl-phenyl)-6-(4-chloro-2-methyl-phenyl)-1-isopropyl-4-oxo-1,4,5,6-tetrahydro-pyrrolo[3,4-b]pyrrol-2-yl]-4-methoxy-N-methyl-benzamide] | 264 nM | 0.5 nM | 0.094 nM |
| CNC(=O)c1ccc(OC)c(-c2cc3c(n2C(C)C)C(c2ccc(Cl)cc2C)N([C@H]2CC[C@H](O)CC2)C3=O)c1 (stereo partly drawn) [Example 102, 3-[6-(4-Chloro-2-methyl-phenyl)-5-(trans-4-hydroxy-cyclohexyl)-1-isopropyl-4-oxo-1,4,5,6-tetrahydro-pyrrolo[3,4-b]pyrrol-2-yl]-4-methoxy-N-methyl-benzamide] | 2380 nM | 12.7 nM | 13.6 nM |
